Measurements published in patent US20230120564A1, “PYRIDO[3,4-D]PYRIMIDINE DERIVATIVE AND THERAPEUTIC PHARMACEUTIC COMPOSITION COMPRISING SAME” (KOREA INSTITUTE OF SCIENCE AND TECHNOLOGY, priority 2020, published 2023).

Legend:
Assay in all cases: full kinase panel biochemical assay
RIPK2 = RIPK2 (Homo sapiens, UniProt O43353); settings: single concentration of 1 μM; read-out: percent inhibition of RIPK2
Procedure: (§1) In order to measure the protein kinase inhibitory activity (% inhibition) of the compound of the present invention, biochemical assay was performed in the full kinase panel. As a test compound, Compound No. 4 was used. The percent inhibition of each kinase when treated with the test compound at a single concentration of 1 μM was measured, and the residual enzyme activity values (%) of the kinases were calculated. Kinases whose calculated residual enzyme activity values (%) was 30% or less (i.e., kinases inhibited by 70% or more) are as follows: ABL1, ABL2/ARG, ACK1, ARAF, BLK, BMX/ETK, BRAF, BRK, BTK, c-Kit, c-Src, CSK, DDR1, DDR2, EPHA1, EPHA2, EPHA3, EPHA4, EPHA5, EPHA6, EPHA7, EPHA8, EPHB1, EPHB2, EPHB3, EPHB4, ERBB2/HER2, ERBB4/HER4, FGFR1, FGFR2, FGFR3, FGR, FLT1/VEGFR1, FLT4/VEGFR3, FMS, FRK/PTK5, FYN, GCK/MAP4K2, HCK, HGK/MAP4K4, JAK1, JAK2, KDR/VEGFR2, KHS/MAP4K5, LCK, LYN, LYN B, MEKK1, MLK4, MYLK3, NEK5, P38a/MAPK14, P38b/MAPK11, PDGFRa, PDGFRb, PEAK1, RET, RIPK2, RIPK4, SIK2, SRPK1, TAOK3/JIK, TLK1, TNK1, TXK, TYK2, YES/YES1, YSK4/MAP3K19, and ZAK/MLTK.

JAK2 = JAK2 (Homo sapiens, UniProt O60674); settings: single concentration of 1 μM; read-out: percent inhibition of JAK2
Procedure: as §1

FRK/PTK5 = FRK/PTK5 (Homo sapiens, UniProt P42685); settings: single concentration of 1 μM; read-out: percent inhibition of FRK/PTK5
Procedure: as §1

HCK = HCK (Homo sapiens, UniProt P08631); settings: single concentration of 1 μM; read-out: percent inhibition of HCK
Procedure: as §1

YSK4/MAP3K19 = YSK4/MAP3K19 (Homo sapiens, UniProt Q56UN5); settings: single concentration of 1 μM; read-out: percent inhibition of YSK4/MAP3K19
Procedure: as §1

FGFR3 = FGFR3 (Homo sapiens, UniProt P22607); settings: single concentration of 1 μM; read-out: percent inhibition of FGFR3
Procedure: as §1

LCK = LCK (Homo sapiens, UniProt P06239); settings: single concentration of 1 μM; read-out: percent inhibition of LCK
Procedure: as §1

RET = RET (Homo sapiens, UniProt P07949); settings: single concentration of 1 μM; read-out: percent inhibition of RET
Procedure: as §1

MYLK3 = MYLK3 (Homo sapiens, UniProt Q32MK0); settings: single concentration of 1 μM; read-out: percent inhibition of MYLK3
Procedure: as §1

EPHB3 = EPHB3 (Homo sapiens, UniProt P54753); settings: single concentration of 1 μM; read-out: percent inhibition of EPHB3
Procedure: as §1

RIPK4 = RIPK4 (Homo sapiens, UniProt P57078); settings: single concentration of 1 μM; read-out: percent inhibition of RIPK4
Procedure: as §1

BMX/ETK = BMX/ETK (Homo sapiens, UniProt P51813); settings: single concentration of 1 μM; read-out: percent inhibition of BMX/ETK
Chain of BMX/ETK (P51813 whole entry): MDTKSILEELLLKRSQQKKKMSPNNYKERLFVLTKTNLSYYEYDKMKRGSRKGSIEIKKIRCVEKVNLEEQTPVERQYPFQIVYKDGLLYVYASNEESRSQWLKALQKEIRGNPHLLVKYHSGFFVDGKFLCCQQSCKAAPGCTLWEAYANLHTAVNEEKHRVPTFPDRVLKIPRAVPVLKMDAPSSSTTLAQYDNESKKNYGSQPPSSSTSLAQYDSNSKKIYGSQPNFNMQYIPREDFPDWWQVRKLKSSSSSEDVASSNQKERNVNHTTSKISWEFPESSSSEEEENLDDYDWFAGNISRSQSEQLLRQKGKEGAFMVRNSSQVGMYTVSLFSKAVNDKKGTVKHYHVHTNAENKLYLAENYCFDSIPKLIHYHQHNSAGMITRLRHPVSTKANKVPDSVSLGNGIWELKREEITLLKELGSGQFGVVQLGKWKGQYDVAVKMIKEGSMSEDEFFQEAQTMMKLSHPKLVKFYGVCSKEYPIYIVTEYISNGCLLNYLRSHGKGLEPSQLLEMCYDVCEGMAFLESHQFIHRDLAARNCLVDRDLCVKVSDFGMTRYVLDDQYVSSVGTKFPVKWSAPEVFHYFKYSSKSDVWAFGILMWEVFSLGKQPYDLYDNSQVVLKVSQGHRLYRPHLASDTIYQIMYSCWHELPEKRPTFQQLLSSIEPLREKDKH
Procedure: as §1

ABL2/ARG = ABL2/ARG (Homo sapiens, UniProt P42684); settings: single concentration of 1 μM; read-out: percent inhibition of ABL2/ARG
Procedure: as §1

P38b/MAPK11 = P38b/MAPK11 (Homo sapiens, UniProt Q15759); settings: single concentration of 1 μM; read-out: percent inhibition of P38b/MAPK11
Chain of P38b/MAPK11 (Q15759 whole entry): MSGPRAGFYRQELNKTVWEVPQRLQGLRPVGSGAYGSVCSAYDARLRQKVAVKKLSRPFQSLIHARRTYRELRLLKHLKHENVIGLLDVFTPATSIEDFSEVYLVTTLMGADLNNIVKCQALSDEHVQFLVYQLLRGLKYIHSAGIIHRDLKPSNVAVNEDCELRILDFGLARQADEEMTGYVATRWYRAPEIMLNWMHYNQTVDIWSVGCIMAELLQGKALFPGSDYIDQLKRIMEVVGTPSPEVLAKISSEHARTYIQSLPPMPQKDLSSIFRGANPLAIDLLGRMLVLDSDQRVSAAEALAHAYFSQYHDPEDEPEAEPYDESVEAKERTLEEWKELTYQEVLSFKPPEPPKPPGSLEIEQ
Procedure: as §1

EPHB2 = EPHB2 (Homo sapiens, UniProt P29323); settings: single concentration of 1 μM; read-out: percent inhibition of EPHB2
Chain of EPHB2 (P29323 19-1055): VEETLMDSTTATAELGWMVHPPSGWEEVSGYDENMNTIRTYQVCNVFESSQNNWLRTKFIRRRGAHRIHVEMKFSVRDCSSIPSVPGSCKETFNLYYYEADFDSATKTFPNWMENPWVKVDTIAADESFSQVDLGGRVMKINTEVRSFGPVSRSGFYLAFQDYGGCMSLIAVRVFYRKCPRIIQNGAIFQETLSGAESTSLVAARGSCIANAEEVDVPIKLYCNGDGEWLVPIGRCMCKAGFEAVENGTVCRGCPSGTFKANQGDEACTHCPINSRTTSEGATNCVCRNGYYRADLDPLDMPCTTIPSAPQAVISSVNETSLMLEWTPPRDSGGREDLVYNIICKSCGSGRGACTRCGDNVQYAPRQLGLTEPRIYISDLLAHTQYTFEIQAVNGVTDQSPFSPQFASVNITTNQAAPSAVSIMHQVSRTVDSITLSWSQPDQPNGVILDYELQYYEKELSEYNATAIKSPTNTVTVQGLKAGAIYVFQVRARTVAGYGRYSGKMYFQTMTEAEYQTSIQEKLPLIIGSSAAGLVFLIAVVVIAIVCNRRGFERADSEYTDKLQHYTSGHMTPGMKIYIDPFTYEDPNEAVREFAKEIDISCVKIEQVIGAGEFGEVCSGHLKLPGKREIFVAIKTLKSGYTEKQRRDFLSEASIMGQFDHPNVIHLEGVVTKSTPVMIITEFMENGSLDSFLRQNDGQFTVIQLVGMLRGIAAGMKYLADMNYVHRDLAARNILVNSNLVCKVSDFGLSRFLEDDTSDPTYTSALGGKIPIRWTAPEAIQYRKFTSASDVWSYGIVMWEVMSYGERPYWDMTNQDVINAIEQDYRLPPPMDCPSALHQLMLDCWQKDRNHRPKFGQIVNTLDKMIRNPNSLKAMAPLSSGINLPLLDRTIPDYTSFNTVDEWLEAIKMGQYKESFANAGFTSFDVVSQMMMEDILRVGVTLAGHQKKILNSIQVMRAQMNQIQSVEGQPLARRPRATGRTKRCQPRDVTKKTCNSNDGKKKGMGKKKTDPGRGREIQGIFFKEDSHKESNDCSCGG
Procedure: as §1

EPHA3 = EPHA3 (Homo sapiens, UniProt P29320); settings: single concentration of 1 μM; read-out: percent inhibition of EPHA3
Chain of EPHA3 (P29320 21-983): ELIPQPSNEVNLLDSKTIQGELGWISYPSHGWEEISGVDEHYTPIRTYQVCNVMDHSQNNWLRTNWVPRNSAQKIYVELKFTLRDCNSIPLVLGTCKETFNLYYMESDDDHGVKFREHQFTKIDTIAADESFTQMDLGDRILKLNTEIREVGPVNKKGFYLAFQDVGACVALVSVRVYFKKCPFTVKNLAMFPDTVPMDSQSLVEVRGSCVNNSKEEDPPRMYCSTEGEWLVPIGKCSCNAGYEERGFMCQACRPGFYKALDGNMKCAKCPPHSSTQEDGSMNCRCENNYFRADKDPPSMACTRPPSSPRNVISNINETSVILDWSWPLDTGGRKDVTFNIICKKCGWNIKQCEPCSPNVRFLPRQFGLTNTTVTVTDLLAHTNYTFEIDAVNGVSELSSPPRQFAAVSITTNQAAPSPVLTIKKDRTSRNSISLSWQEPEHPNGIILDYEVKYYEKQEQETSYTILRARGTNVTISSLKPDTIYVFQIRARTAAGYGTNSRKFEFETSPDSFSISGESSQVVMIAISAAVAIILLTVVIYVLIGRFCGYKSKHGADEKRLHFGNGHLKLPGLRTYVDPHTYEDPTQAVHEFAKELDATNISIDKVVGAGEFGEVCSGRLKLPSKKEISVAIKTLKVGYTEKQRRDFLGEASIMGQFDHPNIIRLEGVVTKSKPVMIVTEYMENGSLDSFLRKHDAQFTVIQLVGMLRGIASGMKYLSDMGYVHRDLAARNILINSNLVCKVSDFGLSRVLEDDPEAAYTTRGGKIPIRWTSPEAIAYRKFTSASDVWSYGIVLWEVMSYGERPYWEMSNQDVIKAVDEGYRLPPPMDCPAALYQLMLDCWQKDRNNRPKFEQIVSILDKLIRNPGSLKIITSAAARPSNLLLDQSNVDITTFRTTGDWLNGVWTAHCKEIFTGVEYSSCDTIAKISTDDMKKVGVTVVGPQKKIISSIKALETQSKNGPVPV
Procedure: as §1

YES/YES1 = YES/YES1 (Homo sapiens, UniProt P07947); settings: single concentration of 1 μM; read-out: percent inhibition of YES/YES1
Procedure: as §1

NEK5 = NEK5 (Homo sapiens, UniProt Q6P3R8); settings: single concentration of 1 μM; read-out: percent inhibition of NEK5
Procedure: as §1

EPHA7 = EPHA7 (Homo sapiens, UniProt Q15375); settings: single concentration of 1 μM; read-out: percent inhibition of EPHA7
Procedure: as §1

MLK4 = MLK4 (Homo sapiens, UniProt Q5TCX8); settings: single concentration of 1 μM; read-out: percent inhibition of MLK4
Chain of MLK4 (Q5TCX8 whole entry): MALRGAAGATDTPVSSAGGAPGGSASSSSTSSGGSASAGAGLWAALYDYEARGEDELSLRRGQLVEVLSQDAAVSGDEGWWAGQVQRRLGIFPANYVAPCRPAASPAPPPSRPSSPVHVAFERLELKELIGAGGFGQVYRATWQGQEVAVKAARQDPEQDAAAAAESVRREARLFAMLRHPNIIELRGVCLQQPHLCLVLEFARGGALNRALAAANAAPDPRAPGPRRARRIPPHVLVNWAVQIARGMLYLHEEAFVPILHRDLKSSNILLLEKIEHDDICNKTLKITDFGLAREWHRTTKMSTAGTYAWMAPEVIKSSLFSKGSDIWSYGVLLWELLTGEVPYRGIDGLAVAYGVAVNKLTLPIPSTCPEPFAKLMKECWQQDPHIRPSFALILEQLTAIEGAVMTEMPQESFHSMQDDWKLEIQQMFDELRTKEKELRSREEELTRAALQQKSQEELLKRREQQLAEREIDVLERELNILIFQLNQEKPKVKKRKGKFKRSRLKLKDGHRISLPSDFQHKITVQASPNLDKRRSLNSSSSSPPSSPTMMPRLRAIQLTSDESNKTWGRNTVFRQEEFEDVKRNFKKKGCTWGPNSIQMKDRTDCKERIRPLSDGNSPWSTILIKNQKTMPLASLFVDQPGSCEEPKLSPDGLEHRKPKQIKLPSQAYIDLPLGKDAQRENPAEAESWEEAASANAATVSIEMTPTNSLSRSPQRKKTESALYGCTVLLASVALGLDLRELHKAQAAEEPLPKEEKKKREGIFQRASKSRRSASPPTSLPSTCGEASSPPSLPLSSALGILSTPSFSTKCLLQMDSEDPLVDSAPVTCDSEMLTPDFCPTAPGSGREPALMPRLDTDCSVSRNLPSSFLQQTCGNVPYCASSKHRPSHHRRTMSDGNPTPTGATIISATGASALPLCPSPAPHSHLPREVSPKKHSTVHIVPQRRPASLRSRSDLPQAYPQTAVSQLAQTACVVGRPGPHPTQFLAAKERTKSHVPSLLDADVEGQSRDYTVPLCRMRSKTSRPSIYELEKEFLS
Procedure: as §1

EPHA6 = EPHA6 (Homo sapiens, UniProt Q9UF33); settings: single concentration of 1 μM; read-out: percent inhibition of EPHA6
Chain of EPHA6 (Q9UF33 23-1036): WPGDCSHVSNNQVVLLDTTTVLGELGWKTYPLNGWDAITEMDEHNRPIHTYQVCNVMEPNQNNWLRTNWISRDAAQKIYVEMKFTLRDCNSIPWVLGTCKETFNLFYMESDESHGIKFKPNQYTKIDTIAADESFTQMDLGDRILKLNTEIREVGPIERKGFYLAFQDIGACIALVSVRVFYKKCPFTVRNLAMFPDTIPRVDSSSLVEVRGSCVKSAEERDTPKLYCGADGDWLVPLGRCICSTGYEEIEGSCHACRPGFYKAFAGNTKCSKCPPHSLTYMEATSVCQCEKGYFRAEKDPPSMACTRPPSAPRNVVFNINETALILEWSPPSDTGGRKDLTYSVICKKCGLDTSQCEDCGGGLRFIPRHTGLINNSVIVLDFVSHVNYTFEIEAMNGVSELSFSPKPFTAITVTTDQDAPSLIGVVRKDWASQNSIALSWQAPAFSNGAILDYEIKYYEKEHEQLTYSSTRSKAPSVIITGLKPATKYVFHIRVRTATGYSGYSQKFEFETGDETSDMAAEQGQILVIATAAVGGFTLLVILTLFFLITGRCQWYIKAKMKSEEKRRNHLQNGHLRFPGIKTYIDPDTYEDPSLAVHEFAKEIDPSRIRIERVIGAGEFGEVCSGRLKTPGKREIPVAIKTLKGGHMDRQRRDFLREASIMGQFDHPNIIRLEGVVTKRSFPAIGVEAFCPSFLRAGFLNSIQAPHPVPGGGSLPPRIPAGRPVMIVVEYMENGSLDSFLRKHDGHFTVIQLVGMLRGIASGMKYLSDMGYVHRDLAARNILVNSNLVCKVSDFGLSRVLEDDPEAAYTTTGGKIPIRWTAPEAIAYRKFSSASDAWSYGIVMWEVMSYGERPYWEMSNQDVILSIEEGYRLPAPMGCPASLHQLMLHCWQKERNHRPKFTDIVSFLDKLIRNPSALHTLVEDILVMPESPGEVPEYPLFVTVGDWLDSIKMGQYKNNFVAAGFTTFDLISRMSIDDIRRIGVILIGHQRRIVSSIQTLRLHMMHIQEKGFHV
Procedure: as §1

MEKK1 = MEKK1 (Homo sapiens, UniProt Q13233); settings: single concentration of 1 μM; read-out: percent inhibition of MEKK1
Procedure: as §1

BRAF = BRAF (Homo sapiens, UniProt P15056); settings: single concentration of 1 μM; read-out: percent inhibition of BRAF
Procedure: as §1

BRK = BRK (Homo sapiens, UniProt Q13882); settings: single concentration of 1 μM; read-out: percent inhibition of BRK
Procedure: as §1

Measured: inhibition at 1 µM

Cc1ccc(Nc2ncc3cc(-c4cc(NC(=O)c5cccc(C(F)(F)F)c5)ccc4C)ncc3n2)cn1 [Compound No. 4, N-(4-methyl-3-(2-((6-methylpyridin-3-yl)amino)pyrido[3,4-d]pyrimidin-6-yl)phenyl)-3-(trifluoromethyl)benzamide]
≥ 70%: all assays above
